Reference: PubChem BioAssay (NCI)
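Exposure lasted 48 hours, with cells grown in 96-well plates and compounds tested at five concentrations. TGI marks complete inhibition of growth.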

How the values were obtained:
Experiment in all cases: inhibition of tumour cell growth, NCI panel, 48 h
EKVX NSCLC = test system: EKVX NSCLC
HOP-62 NSCLC = test system: HOP-62 NSCLC
HT29 colon = test system: HT29 colon
IGROV1 ovarian = test system: IGROV1 ovarian
ACHN renal = test system: ACHN renal
SK-MEL-2 melanoma = test system: SK-MEL-2 melanoma
HS 578T breast = test system: HS 578T breast
MALME-3M melanoma = test system: MALME-3M melanoma
PC-3 prostate = test system: PC-3 prostate
RXF 393 renal = test system: RXF 393 renal

In the case of `CC(=O)O[C@H]1C[C@H]2[C@@H]([C@H](OC(C)=O)C[C@@H]3CC4(CC[C@@]32C)OOC2(CCCCC2)OO4)[C@@H]2CC[C@H]([C@H](C)CCC(=O)O)[C@@]12C`, the TGI (EKVX NSCLC) is reported as 4.76 µM, the TGI (HOP-62 NSCLC) is reported as 5.93 µM and the TGI (HT29 colon) is reported as 25.3 µM. For the same compound, the TGI (IGROV1 ovarian) was 3.9 µM, the TGI (ACHN renal) was 20.3 µM and the TGI (SK-MEL-2 melanoma) was 26.5 µM. For the same compound, the TGI (HS 578T breast) was 9.32 µM, the TGI (MALME-3M melanoma) was 34.3 µM and the TGI (PC-3 prostate) was 22.2 µM. It also gave a TGI (RXF 393 renal) of 31.3 µM.
`C=C1C(=O)O[C@@H]2[C@H]1C[C@H](I)[C@@]1(C)CC[C@H](O1)[C@](C)(I)CCCC(C)[C@@H]2O` (stereo not given in full) gave a TGI (EKVX NSCLC) of 22.9 µM, a TGI (HOP-62 NSCLC) of 35.2 µM and a TGI (HT29 colon) of 4.61 µM. The TGI (IGROV1 ovarian) was 5.68 µM, the TGI (ACHN renal) was 3.71 µM and the TGI (SK-MEL-2 melanoma) was 28.6 µM. It also gave a TGI (HS 578T breast) of 40.1 µM, a TGI (MALME-3M melanoma) of 7.33 µM and a TGI (PC-3 prostate) of 24.6 µM. It also gave a TGI (RXF 393 renal) of 4.44 µM.
`CC(C)CCCC(C)[C@H]1CCC2[C@@H]3CCC4Cc5nc6c(nc5C[C@]4(C)C3CC[C@@]21C)CC1CC[C@@H]2C(CC[C@@]3(C)C2CC[C@@H]3O)[C@@]1(C)C6` (stereo not given in full) was tested, and the TGI (EKVX NSCLC) was greater than 100 µM, the TGI (HOP-62 NSCLC) was greater than 100 µM and the TGI (HT29 colon) was greater than 100 µM. The TGI (IGROV1 ovarian) was greater than 100 µM, the TGI (ACHN renal) was greater than 100 µM and the TGI (SK-MEL-2 melanoma) was greater than 100 µM. The TGI (HS 578T breast) was greater than 100 µM, the TGI (MALME-3M melanoma) was greater than 100 µM and the TGI (PC-3 prostate) was greater than 100 µM. It also gave a TGI (RXF 393 renal) greater than 100 µM.
With `CCN(CC)Cc1ccc(Nc2c3ccccc3nc3ccccc23)cc1` the TGI (EKVX NSCLC) was 26.2 µM, the TGI (HOP-62 NSCLC) was 6.84 µM and the TGI (HT29 colon) was 22.3 µM. The TGI (IGROV1 ovarian) was 13.9 µM, the TGI (ACHN renal) was 1.22 µM and the TGI (SK-MEL-2 melanoma) was 7.27 µM. The TGI (HS 578T breast) was 21.8 µM, the TGI (MALME-3M melanoma) was 3.61 µM and the TGI (PC-3 prostate) was 3.68 µM. For the same compound, the TGI (RXF 393 renal) was 3.96 µM.
Work on `C=CC1(O)CCCC=C1COCc1ccccc1` (stereo not given) yielded a TGI (EKVX NSCLC) greater than 100 µM, a TGI (HOP-62 NSCLC) greater than 100 µM and a TGI (HT29 colon) greater than 100 µM. The TGI (IGROV1 ovarian) was 35.3 µM, the TGI (ACHN renal) was greater than 100 µM and the TGI (SK-MEL-2 melanoma) was greater than 100 µM. It also gave a TGI (HS 578T breast) greater than 100 µM, a TGI (MALME-3M melanoma) greater than 100 µM and a TGI (PC-3 prostate) greater than 100 µM. For the same compound, the TGI (RXF 393 renal) was greater than 100 µM.
For `CC(C)=NNc1ncnc2nc[nH]c12`, the TGI (EKVX NSCLC) was 98.2 µM, the TGI (HOP-62 NSCLC) was greater than 76.7 µM and the TGI (HT29 colon) was greater than 100 µM. For the same compound, the TGI (IGROV1 ovarian) was greater than 100 µM, the TGI (ACHN renal) was greater than 100 µM and the TGI (SK-MEL-2 melanoma) was greater than 67.8 µM. The TGI (HS 578T breast) was 83.9 µM, the TGI (MALME-3M melanoma) was greater than 100 µM and the TGI (PC-3 prostate) was greater than 100 µM. For the same compound, the TGI (RXF 393 renal) was greater than 100 µM.
In the case of `COC1(c2ccccc2)NC(=S)NN=C1c1ccccc1` (stereo not given), the TGI (EKVX NSCLC) is reported as greater than 100 µM, the TGI (HOP-62 NSCLC) is reported as greater than 100 µM and the TGI (HT29 colon) is reported as greater than 100 µM. It also gave a TGI (IGROV1 ovarian) greater than 100 µM, a TGI (ACHN renal) greater than 100 µM and a TGI (SK-MEL-2 melanoma) of 75.8 µM. It also gave a TGI (HS 578T breast) greater than 100 µM, a TGI (MALME-3M melanoma) greater than 100 µM and a TGI (PC-3 prostate) greater than 100 µM. It also gave a TGI (RXF 393 renal) greater than 100 µM.
`CC(=O)N1c2ccccc2[C@H]2CCc3c([nH]c4ccccc34)[C@H]21` was tested, and the TGI (EKVX NSCLC) was 49 µM, the TGI (HOP-62 NSCLC) was 28.1 µM and the TGI (HT29 colon) was 44.7 µM. The TGI (IGROV1 ovarian) was 44.3 µM, the TGI (ACHN renal) was greater than 100 µM and the TGI (SK-MEL-2 melanoma) was 74.1 µM. The TGI (HS 578T breast) was 57.7 µM, the TGI (MALME-3M melanoma) was 30.7 µM and the TGI (PC-3 prostate) was greater than 100 µM. For the same compound, the TGI (RXF 393 renal) was 28.4 µM.
`O=C(c1ccccc1)c1ccc2nc3n(c2c1)C(c1c(Cl)cccc1Cl)SC3` (stereo not given) gave a TGI (EKVX NSCLC) of 78.6 µM, a TGI (HOP-62 NSCLC) greater than 44.4 µM and a TGI (HT29 colon) of 31 µM. It also gave a TGI (IGROV1 ovarian) greater than 100 µM, a TGI (ACHN renal) greater than 38 µM and a TGI (SK-MEL-2 melanoma) of 78.5 µM. The TGI (HS 578T breast) was greater than 65 µM, the TGI (MALME-3M melanoma) was 31.3 µM and the TGI (PC-3 prostate) was greater than 100 µM. It also gave a TGI (RXF 393 renal) greater than 100 µM.
`O=S(=O)(O)c1ccc2c(N=Nc3c(O)ccc4ccccc34)cccc2c1` gave a TGI (EKVX NSCLC) greater than 100 µM, a TGI (HOP-62 NSCLC) greater than 100 µM and a TGI (HT29 colon) greater than 100 µM. The TGI (IGROV1 ovarian) was greater than 100 µM, the TGI (ACHN renal) was greater than 100 µM and the TGI (SK-MEL-2 melanoma) was greater than 100 µM. The TGI (HS 578T breast) was greater than 100 µM, the TGI (MALME-3M melanoma) was greater than 100 µM and the TGI (PC-3 prostate) was greater than 100 µM. The TGI (RXF 393 renal) was greater than 100 µM.
For `Cc1cc2c3c(c1)CCCN3CCC2`, the TGI (EKVX NSCLC) was greater than 10 µM, the TGI (HOP-62 NSCLC) was greater than 10 µM and the TGI (HT29 colon) was greater than 10 µM. For the same compound, the TGI (IGROV1 ovarian) was greater than 10 µM, the TGI (ACHN renal) was greater than 10 µM and the TGI (SK-MEL-2 melanoma) was greater than 10 µM. The TGI (HS 578T breast) was greater than 10 µM, the TGI (MALME-3M melanoma) was greater than 10 µM and the TGI (PC-3 prostate) was greater than 10 µM. The TGI (RXF 393 renal) was greater than 10 µM.
In the case of `N=C(N)c1ccc(N=Nc2c(O)ccc3cc(O)ccc23)cc1`, the TGI (EKVX NSCLC) is reported as greater than 100 µM, the TGI (HOP-62 NSCLC) is reported as greater than 100 µM and the TGI (HT29 colon) is reported as greater than 100 µM. For the same compound, the TGI (IGROV1 ovarian) was greater than 100 µM, the TGI (ACHN renal) was greater than 100 µM and the TGI (SK-MEL-2 melanoma) was greater than 100 µM. For the same compound, the TGI (HS 578T breast) was greater than 100 µM, the TGI (MALME-3M melanoma) was greater than 100 µM and the TGI (PC-3 prostate) was greater than 100 µM. For the same compound, the TGI (RXF 393 renal) was greater than 100 µM.
`COc1cccc(/C=C2/S/C(=N/Nc3nc(C)c(C(C)=O)s3)NC2=O)c1O` gave a TGI (EKVX NSCLC) of 84.4 µM, a TGI (HOP-62 NSCLC) greater than 100 µM and a TGI (HT29 colon) greater than 100 µM. For the same compound, the TGI (IGROV1 ovarian) was greater than 100 µM, the TGI (ACHN renal) was 51.6 µM and the TGI (SK-MEL-2 melanoma) was 48 µM. It also gave a TGI (HS 578T breast) greater than 100 µM, a TGI (MALME-3M melanoma) of 88.2 µM and a TGI (PC-3 prostate) of 70.4 µM. It also gave a TGI (RXF 393 renal) of 93.2 µM.
Work on `CC(N)=O.[Cl][Pt][Cl].[NH-]c1ccn(C2OC(CO)C(O)C2O)c(=O)n1` (stereo not given) yielded a TGI (EKVX NSCLC) greater than 100 µM, a TGI (HOP-62 NSCLC) greater than 100 µM and a TGI (HT29 colon) greater than 100 µM. The TGI (IGROV1 ovarian) was greater than 100 µM, the TGI (ACHN renal) was greater than 100 µM and the TGI (SK-MEL-2 melanoma) was greater than 100 µM. For the same compound, the TGI (HS 578T breast) was greater than 100 µM, the TGI (MALME-3M melanoma) was greater than 100 µM and the TGI (PC-3 prostate) was greater than 100 µM. It also gave a TGI (RXF 393 renal) greater than 100 µM.
`Clc1ccc(Cn2cc(/C=N/n3cnnc3)c3ccccc32)cc1` gave a TGI (EKVX NSCLC) greater than 100 µM, a TGI (HOP-62 NSCLC) greater than 100 µM and a TGI (HT29 colon) greater than 100 µM. It also gave a TGI (IGROV1 ovarian) greater than 100 µM, a TGI (ACHN renal) greater than 100 µM and a TGI (SK-MEL-2 melanoma) of 82.9 µM. It also gave a TGI (HS 578T breast) greater than 100 µM, a TGI (MALME-3M melanoma) greater than 100 µM and a TGI (PC-3 prostate) greater than 100 µM. The TGI (RXF 393 renal) was 46.8 µM.
`NC(N)=N/N=C\c1c(-c2ccccc2)nc2sccn12` gave a TGI (EKVX NSCLC) of 28.1 µM, a TGI (HOP-62 NSCLC) of 29.1 µM and a TGI (HT29 colon) of 28.6 µM. The TGI (IGROV1 ovarian) was 27 µM, the TGI (ACHN renal) was 30.6 µM and the TGI (SK-MEL-2 melanoma) was 28.6 µM. It also gave a TGI (HS 578T breast) of 34.5 µM, a TGI (MALME-3M melanoma) of 30 µM and a TGI (PC-3 prostate) of 28.5 µM. For the same compound, the TGI (RXF 393 renal) was 26.3 µM.
`Nc1nc2c(c(=O)[nH]1)NC(CCNc1ccc(C(=O)O)cc1)CN2` (stereo not given) was tested, and the TGI (EKVX NSCLC) was greater than 100 µM, the TGI (HOP-62 NSCLC) was greater than 100 µM and the TGI (HT29 colon) was greater than 100 µM. The TGI (IGROV1 ovarian) was greater than 100 µM, the TGI (ACHN renal) was greater than 100 µM and the TGI (SK-MEL-2 melanoma) was greater than 100 µM. For the same compound, the TGI (HS 578T breast) was greater than 100 µM, the TGI (MALME-3M melanoma) was greater than 100 µM and the TGI (PC-3 prostate) was greater than 100 µM. For the same compound, the TGI (RXF 393 renal) was greater than 100 µM.
For `CN(CCCNC(=O)c1c2ccc3ccccc3c2nn1C)CCCNC(=O)c1c2ccc3ccccc3c2nn1C`, the TGI (EKVX NSCLC) was 22.3 µM, the TGI (HOP-62 NSCLC) was 33.7 µM and the TGI (HT29 colon) was 6.93 µM. It also gave a TGI (IGROV1 ovarian) of 23.3 µM, a TGI (ACHN renal) of 23.8 µM and a TGI (SK-MEL-2 melanoma) of 13.3 µM. The TGI (HS 578T breast) was 30.3 µM, the TGI (MALME-3M melanoma) was 8.71 µM and the TGI (PC-3 prostate) was 27.5 µM. The TGI (RXF 393 renal) was 20 µM.
